Data from patent US20260265233A1, “BENZOTHIOPHENE DERIVATIVES AS RXFP1 AGONISTS” (BRISTOL-MYERS SQUIBB COMPANY, priority 2021, published 2026).
pEC50: −log10 of the molar value.

biological target: T1, human RXFP1 (Homo sapiens, UniProt Q9HBX9); assay: hRXFP1 HEK293 cAMP assay (HTRF); type: cell-based; conditions: HEK293 cells stably expressing human RXFP1; 30 min at rt; intracellular cAMP by HTRF
T1 construct: expressed in transfected cells
T1 sequence (Q9HBX9 1-757): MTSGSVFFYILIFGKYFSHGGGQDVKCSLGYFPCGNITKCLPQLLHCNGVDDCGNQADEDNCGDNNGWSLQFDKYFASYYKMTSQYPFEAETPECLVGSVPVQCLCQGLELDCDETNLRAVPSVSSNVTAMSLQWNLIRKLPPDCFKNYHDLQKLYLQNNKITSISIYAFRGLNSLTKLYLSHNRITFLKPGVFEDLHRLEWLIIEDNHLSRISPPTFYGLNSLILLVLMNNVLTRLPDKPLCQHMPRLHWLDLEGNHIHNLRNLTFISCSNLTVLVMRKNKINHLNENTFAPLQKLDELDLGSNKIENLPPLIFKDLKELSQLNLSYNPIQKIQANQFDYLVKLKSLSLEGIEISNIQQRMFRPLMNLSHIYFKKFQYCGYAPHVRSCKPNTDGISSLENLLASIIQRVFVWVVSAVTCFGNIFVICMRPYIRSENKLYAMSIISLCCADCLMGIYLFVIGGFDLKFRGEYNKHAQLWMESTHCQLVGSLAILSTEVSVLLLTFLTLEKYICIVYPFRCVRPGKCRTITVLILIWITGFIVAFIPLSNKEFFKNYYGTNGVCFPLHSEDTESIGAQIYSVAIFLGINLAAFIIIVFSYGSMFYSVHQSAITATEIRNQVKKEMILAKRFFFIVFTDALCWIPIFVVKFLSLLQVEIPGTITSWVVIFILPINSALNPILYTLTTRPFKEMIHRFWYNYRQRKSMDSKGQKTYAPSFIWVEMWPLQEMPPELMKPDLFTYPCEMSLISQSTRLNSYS
Summary of the method: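 Agonism is measured as cAMP by HTRF, quantified from a standard curve via the 665/590 nm ratio and fitted with a four-parameter logistic equation. Compounds (0.010 nM to 50 μM final, 2% DMSO) were applied for 30 min at rt to human RXFP1-expressing HEK293 cells in assay buffer containing 0.5 mM IBMX.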

| SMILES | pEC50 |
| --- | --- |
| COc1ccc(C2CCN(CC(N)=O)C2)cc1C(=O)Nc1c(C(=O)Nc2ccc(F)c(C(F)(F)F)c2)sc2cc(C(F)(F)F)ccc12 (centres unmarked) [Example 147, 3-(5-(1-(2-amino-2-oxoethyl)pyrrolidin-3-yl)-2-methoxy-benzamido)-N-(4-fluoro-3-(trifluoromethyl)phenyl)-6-(trifluoromethyl) benzo[b] thiophene-2-carboxamide] | 5.84 |
| COc1ccc(C2CCN(S(C)(=O)=O)C2)cc1C(=O)Nc1c(C(=O)Nc2ccc(F)c(C(F)(F)F)c2)sc2cc(C(F)(F)F)ccc12 (centres unmarked) [Example 148, N-(4-fluoro-3-(trifluoromethyl)phenyl)-3-(2-methoxy-5-(1-(methylsulfonyl)pyrrolidin-3-yl)benzamido)-6-(trifluoromethyl) benzo[b] thiophene-2-carboxamide] | 5.65 |
| COc1ccc(C2CCN(C(=O)C(C)(C)O)C2)cc1C(=O)Nc1c(C(=O)Nc2ccc(F)c(C(F)(F)F)c2)sc2cc(C(F)(F)F)ccc12 (centres unmarked) [Example 151, N-(4-fluoro-3-(trifluoromethyl)phenyl)-3-(5-(1-(2-hydroxy-2-methylpropanoyl)pyrrolidin-3-yl)-2-methoxy-benzamido)-6-(trifluoromethyl) benzo[b] thiophene-2-carboxamide] | 6.68 |
| COc1ccc(C2CCN(C(=O)CO)C2)cc1C(=O)Nc1c(C(=O)Nc2ccc(F)c(C(F)(F)F)c2)sc2cc(C(F)(F)F)ccc12 (centres unmarked) [Example 152, N-(4-fluoro-3-(trifluoromethyl)phenyl)-3-(5-(1-(2-hydroxyacetyl)pyrrolidin-3-yl)-2-methoxy-benzamido)-6-(trifluoromethyl) benzo[b] thiophene-2-carboxamide] | 6.21 |
| COc1ccc(C2CCN(C3COC3)C2)cc1C(=O)Nc1c(C(=O)Nc2ccc(F)c(C(F)(F)F)c2)sc2cc(C(F)(F)F)ccc12 (centres unmarked) [Example 154, N-(4-fluoro-3-(trifluoromethyl)phenyl)-3-(2-methoxy-5-(1-(oxetan-3-yl)pyrrolidin-3-yl)benzamido)-6-(trifluoromethyl) benzo[b] thiophene-2-carboxamide] | 6.26 |
| COc1ccc(C2CCN(CC(N)=O)C2)cc1C(=O)Nc1c(C(=O)Nc2ccc(F)c(C(F)(F)F)c2)sc2cc(C(F)(F)F)ccc12 (centres unmarked) [Example 155, 3-{5-[1-(carbamoyl-methyl)pyrrolidin-3-yl]-2-methoxy-benzamido}-N-[4-fluoro-3-(trifluoromethyl)phenyl]-6-(trifluoromethyl)-1-benzothiophene-2-carboxamide] | 6.04 |
| COc1ccc(C2CCN(CC(N)=O)C2)cc1C(=O)Nc1c(C(=O)Nc2ccc(F)c(C(F)(F)F)c2)sc2cc(C(F)(F)F)ccc12 (centres unmarked) [Example 156, 3-(5-(1-(2-amino-2-oxoethyl)pyrrolidin-3-yl)-2-methoxy-benzamido)-N-(4-fluoro-3-(trifluoromethyl)phenyl)-6-(trifluoromethyl) benzo[b] thiophene-2-carboxamide] | 5.66 |
| COc1ccc(C2CC2C(C)(C)O)cc1C(=O)Nc1c(C(=O)Nc2ccc(F)c(C(F)(F)F)c2)sc2cc(C(F)(F)F)ccc12 (centres unmarked) [Example 159, N-(4-fluoro-3-(trifluoromethyl)phenyl)-3-(5-(2-(2-hydroxypropan-2-yl)cyclopropyl)-2-methoxy-benzamido)-6-(trifluoromethyl) benzo[b] thiophene-2-carboxamide] | 6.70 |
| COc1ccc(C2CC2C(=O)N2CC(O)C2)cc1C(=O)Nc1c(C(=O)Nc2ccc(F)c(C(F)(F)F)c2)sc2cc(C(F)(F)F)ccc12 (centres unmarked) [Example 162, N-(4-fluoro-3-(trifluoromethyl)phenyl)-3-(5-(2-(3-hydroxyazetidine-1-carbonyl)cyclopropyl)-2-methoxy-benzamido)-6-(trifluoromethyl) benzo[b] thiophene-2-carboxamide] | 6.53 |
| COc1ccc(C2CC2C(=O)N2CC(OC)C2)cc1C(=O)Nc1c(C(=O)Nc2ccc(F)c(C(F)(F)F)c2)sc2cc(C(F)(F)F)ccc12 (centres unmarked) [Example 163, N-[4-fluoro-3-(trifluoromethyl)phenyl]-3-{2-methoxy-5-[2-(3-methoxyazetidine-1-carbonyl)cyclopropyl]benzamido}-6-(trifluoromethyl)-1-benzothiophene-2-carboxamide] | 6.18 |
| COc1ccc(C2CC2C(=O)N2CC(C(C)(C)O)C2)cc1C(=O)Nc1c(C(=O)Nc2ccc(F)c(C(F)(F)F)c2)sc2cc(C(F)(F)F)ccc12 (centres unmarked) [Example 165, N-[4-fluoro-3-(trifluoromethyl)phenyl]-3-(5-{2-[3-(2-hydroxypropan-2-yl)azetidine-1-carbonyl]cyclopropyl}-2-methoxy-benzamido)-6-(trifluoromethyl)-1-benzothiophene-2-carboxamide] | 5.52 |

The remaining lines, values ahead:

| pEC50 | SMILES |
| --- | --- |
| 5.79 | COc1ccc(C2CC2C(=O)NCC(C)(C)O)cc1C(=O)Nc1c(C(=O)Nc2ccc(F)c(C(F)(F)F)c2)sc2cc(C(F)(F)F)ccc12 (centres unmarked) [Example 166, N-[4-fluoro-3-(trifluoromethyl)phenyl]-3-(5-{2-[(2-hydroxy-2-methylpropyl)carbamoyl]cyclopropyl}-2-methoxy-benzamido)-6-(trifluoromethyl)-1-benzothiophene-2-carboxamide] |
| 6.40 | COc1ccc(C2CC2C(=O)N2CC(OC)C2)cc1C(=O)Nc1c(C(=O)Nc2ccc(F)c(C(F)(F)F)c2)sc2cc(C(F)(F)F)ccc12 (centres unmarked) [Example 167, N-[4-fluoro-3-(trifluoromethyl)phenyl]-3-{2-methoxy-5-[2-(3-methoxyazetidine-1-carbonyl)cyclopropyl]benzamido}-6-(trifluoromethyl)-1-benzothiophene-2-carboxamide] |
| 5.65 | COc1ccc(C2CC2C(=O)N2CC(C(C)(C)O)C2)cc1C(=O)Nc1c(C(=O)Nc2ccc(F)c(C(F)(F)F)c2)sc2cc(C(F)(F)F)ccc12 (centres unmarked) [Example 169, N-[4-fluoro-3-(trifluoromethyl)phenyl]-3-(5-{2-[3-(2-hydroxypropan-2-yl)azetidine-1-carbonyl]cyclopropyl}-2-methoxy-benzamido)-6-(trifluoromethyl)-1-benzothiophene-2-carboxamide] |
| 5.96 | COc1ccc(C2CC2C(=O)NCC(C)(C)O)cc1C(=O)Nc1c(C(=O)Nc2ccc(F)c(C(F)(F)F)c2)sc2cc(C(F)(F)F)ccc12 (centres unmarked) [Example 170, N-[4-fluoro-3-(trifluoromethyl)phenyl]-3-(5-{2-[(2-hydroxy-2-methylpropyl)carbamoyl]cyclopropyl}-2-methoxy-benzamido)-6-(trifluoromethyl)-1-benzothiophene-2-carboxamide] |
| 8.04 | COc1ncc(C(=O)NCC2(S(C)(=O)=O)CC2)cc1C(=O)Nc1c(C(=O)Nc2ccc(F)c(C(F)(F)F)c2)sc2cc(C(F)(F)F)ccc12 [Example 171, N3-(2-((4-fluoro-3-(trifluoromethyl)phenyl)carbamoyl)-6-(trifluoromethyl)benzo[b]thiophen-3-yl)-2-methoxy-N5-((1-(methylsulfonyl)cyclopropyl)methyl) pyridine-3,5-dicarboxamide] |
| 6.15 | COc1ncc(C(=O)N2CC3(COC3)C2)cc1C(=O)Nc1c(C(=O)Nc2ccc(F)c(C(F)(F)F)c2)sc2cc(C(F)(F)F)ccc12 [Example 172, N-(2-((4-fluoro-3-(trifluoromethyl)phenyl)carbamoyl)-6-(trifluoromethyl)benzo[b]thiophen-3-yl)-2-methoxy-5-(2-oxa-6-azaspiro[3.3]heptane-6-carbonyl) nicotinamide] |
| 6.75 | COc1ncc(C(=O)N2CC(O)C2)cc1C(=O)Nc1c(C(=O)Nc2ccc(F)c(C(F)(F)F)c2)sc2cc(C(F)(F)F)ccc12 [Example 173, N-(2-((4-fluoro-3-(trifluoromethyl)phenyl)carbamoyl)-6-(trifluoromethyl)benzo[b]thiophen-3-yl)-5-(3-hydroxyazetidine-1-carbonyl)-2-methoxy-nicotinamide] |
| 6.39 | COc1ccc(C(=O)N2CC[C@H](O)C2)cc1C(=O)Nc1c(C(=O)Nc2ccc(F)c(C(F)(F)F)c2)sc2cc(C(F)(F)F)ccc12 [Example 174, (S)-N-(4-fluoro-3-(trifluoromethyl)phenyl)-3-(5-(3-hydroxy-pyrrolidine-1-carbonyl)-2-methoxy-benzamido)-6-(trifluoromethyl) benzo[b] thiophene-2-carboxamide] |
| 6.43 | COc1ccc(C(=O)N2CC[C@@H](O)C2)cc1C(=O)Nc1c(C(=O)Nc2ccc(F)c(C(F)(F)F)c2)sc2cc(C(F)(F)F)ccc12 [Example 175, (R)-N-(4-fluoro-3-(trifluoromethyl)phenyl)-3-(5-(3-hydroxy-pyrrolidine-1-carbonyl)-2-methoxy-benzamido)-6-(trifluoromethyl) benzo[b] thiophene-2-carboxamide] |
